The text below walks through data of US20110251220A1, “Pharmaceutical compositions comprising gamma secretase modulators” (priority 2008, published 2011).

One assay concerns human podocyte cell line. Put plainly: TGFβ-induced apoptosis in human podocyte cell line (Cell Death Detection ELISA). Format: cell-based. As for the experimental part:
The percentage of the apoptotic cells was determined after 24 hours using the Cell Death Detection ELISA (Roche Diagnostics, Mannheim, Germany) according to the manufaturer's protocol.
(In general: In an ELISA, binding on a coated surface is turned into a signal by an enzyme label.)

For a further assay, the system named is male Sprague-Dawley rats. Put plainly: PAN-model of albuminuric glomerular disease. The class given is in vivo, rat. The conditions noted are these: day 5, 500 μg/100 g rat i.p. once per day, compared to PAN alone. As for the experimental part:
For the in vivo studies male Sprague-Dawley rats were purchased from Charles River and treated with puromycin aminoglycoside (PAN) to induce albuminuric glomerular disease as described previously (Niranjan et al., “The Notch pathway in podocytes plays a role in the development of glomerular disease.” Nat. Med. 14: 290-298, 2008). Rats were injected PAN (150 mg/kg) once. The test compounds were administered intraperitoneally (500 μg/100 g rat) once per day (n=4 animals per group). Injection of test compounds were started one day after PAN injection. All studies were performed in accordance with the European Union normative. As a positive control one group of rats received gamma secretase inhibitor DAPT.
Urinary albumine was measured at the indicated days as described previously (Sanchez-Nino et al., “The MIF receptor CD74 in diabetic podocyte injury”. J. Am. Soc. Nephrol. 20: 353-362, 2009). For total protein measurement urine samples were centrifuged and pellets were diluted in distilled water. Exton reagent (230 mM sulfosalic acid, 1.4 M sodium sulfate) was added and after 10 minutes absorbance was measured at 620 nm.

For a further assay, the system named is MM cells. Put plainly: Proliferation assay (CellTiter-Glo), concentration of 50% growth inhibition. Format: cell-based. The settings on record: Homo sapiens; read-out: Concentration at which 50% cell growth inhibition was observed. On the procedure:
Human MM cell lines used were as follows: NCI-H929, OPM-2, LP-1, RPMI-8226, U266 (DSMZ, Braunschweig, Germany). Cell lines were cultured in RPMI 1640 medium (Biochrom, Berlin, Germany) supplemented with 10% heat-inactivated fetal calf serum (FCS, Gibco, Karlsruhe, Germany), 1 mM sodium pyruvate and 100 units/ml penicillin and 100 μg/ml streptomycin (Gibco). Human osteoclasts were obtained as described in the reference of Zavrski I, Krebbel H, Wildemann B, et al. Proteasome inhibitors abrogate osteoclast differentiation and osteoclast function. Biochem Biophys Res Commun. 2005; 333:200-205. Briefly, peripheral blood mononuclear cells (PBMC) were isolated from whole blood of healthy volunteers, using a Ficoll-Hypaque density gradient. The adherent fraction of the isolated mononuclear cells was cultured for 21 days in MEM medium (Sigma-Aldrich Chemie, Taufkirchen, Germany) supplemented with 10% FCS, 100 U/ml penicillin, 100 μg/ml streptomycin, 50 ng/ml M-CSF, and 25 ng/ml RANKL (osteoclastogenic medium), before coculture experiments and treatment with the inventive compounds started. Human osteoblasts were obtained according to Robey P G, Termine J D. Human bone cells in vitro. Calcif Tissue Int. 1985; 37:453-460 as described in Hecht M, Heider U, Kaiser M, von Metzler I, Sterz J, Sezer O. Osteoblasts promote migration and invasion of myeloma cells through upregulation of matrix metalloproteinases, urokinase plasminogen activator, hepatocyte growth factor and activation of p38 MAPK. Br J Haematol. 2007; 138: 446-458. Briefly, trabecular bone specimens from patients without malignant disease undergoing knee or hip surgery were minced and washed to remove bone marrow cells. The bone fragments were resuspended in Dulbecco's modified Eagle's medium (DMEM)/HAM's F12 medium (Biochrom, Berlin, Germany) supplemented with 10% FCS and cultured in tissue culture flasks until a confluent cell monolayer was obtained. Culturing of functional osteoblasts was confirmed by alkaline phosphatase (ALP) staining (kit from Sigma, USA), realtime RT-PCR analysis of expression of osteoblast markers (ALP, osteocalcin) and by von-Kossa staining before coculture and treatment experiments were started.
The compound according to example 1, hereinafter referred to as GSI15, (compound RH02015SC, Maybridge, Acros Organics, Geel, Belgium) was freshly dissolved as 26 mM stock solution in Dimethylsulfoxide (DMSO). Multiple myeloma therapeutics used were melphalan (marketed as Alkeran®, GlaxoSmithKline, Munich, Germany) and bortezomib (marketed as Velcade®, Janssen-Cilag, Neuss, Germany). Melphalan was freshly dissolved at 10 mg/ml in 0.9% NaCl-solution. Bortezomib was freshly dissolved at 100 ng/ml in 0.9% NaCl solution. Gamma Secretase Inhibitor (GSI) treatment for apoptosis assessment by AnnexinV/PI staining, cell cycle analysis and coculture experiments was performed in 6-well plates. GSI15 stock solution was added directly to the cell suspension. GSI treatment for assaying proliferation was performed in 96-well plates. 10,000 cells per well were seeded in 50 μl medium per well before 50 μl of a 2× solution of GSI15 prediluted in medium were added per well. […]
For assaying proliferation/viability of cells CellTiter-Glo Luminescent Cell Viability Assay (Promega, Mannheim, Germany) was used. In this assay the number of viable cells at a given time point is determined by quantification of ATP present, which serves as a measure of metabolically active cells. […]

For a further assay, the system named is OPM-2 cells. In words: Apoptosis by AnnexinV-FITC/PI staining, OPM-2. The conditions noted are these: for cell death: OPM-2, 24 h or 48 h, single agent. Format: cell-based, human. On the procedure:
The compound according to example 1, hereinafter referred to as GSI15, (compound RH02015SC, Maybridge, Acros Organics, Geel, Belgium) was freshly dissolved as 26 mM stock solution in Dimethylsulfoxide (DMSO). Multiple myeloma therapeutics used were melphalan (marketed as Alkeran®, GlaxoSmithKline, Munich, Germany) and bortezomib (marketed as Velcade®, Janssen-Cilag, Neuss, Germany). Melphalan was freshly dissolved at 10 mg/ml in 0.9% NaCl-solution. Bortezomib was freshly dissolved at 100 ng/ml in 0.9% NaCl solution. Gamma Secretase Inhibitor (GSI) treatment for apoptosis assessment by AnnexinV/PI staining, cell cycle analysis and coculture experiments was performed in 6-well plates. GSI15 stock solution was added directly to the cell suspension. GSI treatment for assaying proliferation was performed in 96-well plates. 10,000 cells per well were seeded in 50 μl medium per well before 50 μl of a 2× solution of GSI15 prediluted in medium were added per well. Melphalan and bortezomib treatment as well as their combination with GSI15 for assaying apoptosis by AnnexinV/PI staining was done in 6-well plates. All inhibitors were added directly to the cells in 6-well plates.
For cell cycle analysis 2×10^5 cells were spun down, medium was aspirated and cells washed with PBS. Cells were then resuspended in 250 μl PBS. 1 ml ice-cold 70% ethanol was added, followed by overnight incubation at −20° C. Cells were spun down, the pellet washed with PBS and then resuspended in 200 μl PBS containing 0.15 mg/ml RNaseA and 30 μg/ml propidium iodide (PI). After 10 minutes incubation in the dark at room temperature, cells were analyzed by flow cytometry. The amount of apoptotic cells was determined by AnnexinV/propidium iodide staining using Human AnnexinV-FITC Kit (Bender Medsystems, Vienna, Austria), according to manufacturer's protocol. Briefly, 2×10^5 cells were spun down and washed with PBS, followed by 10 minutes incubation in binding buffer containing AnnexinV-FITC conjugate. Cells were then spun down again, resuspended in binding buffer containing PI and analyzed by flow cytometry.

In the case of `C[C@H](NC(=O)Cc1cc(F)cc(F)c1)C(=O)N[C@H](C(=O)OC(C)(C)C)c1ccccc1` [DAPT, reference compound], in the assay with human podocyte cell line (1 μM, compared to TGFβ alone, 24 hours), the inhibition of apoptosis is 37%.
As usually defined, the inhibition is the change of the read-out against control, counted positive when it falls. High values mean a strong effect, low ones a weak effect. Consider `CC(C)(C)c1ccc(Oc2ncccc2NS(=O)(=O)c2ccccc2C(F)(F)F)cc1` [Example 2, N-(2-(4-tert-butylphenoxy)pyridin-3-yl)-2-(trifluoromethyl)benzenesulfonamide], for which, in the assay on male Sprague-Dawley rats, the inhibition of albuminuria is listed as 42% and the inhibition of proteinuria is listed as 37%. In addition, the “effect in podocyte cell culture experiments” value in the assay on human podocyte cell line is reported as “positive effect”. For the same molecule, the inhibition at 3 µM in the assay with human podocyte cell line (Homo sapiens, 3 μM, compared to TGFβ alone, 24 hours) amounted to 27%. At 10 µM the inhibition with human podocyte cell line (Homo sapiens, 10 μM, compared to TGFβ alone, 24 hours) was 27%. Further, the IC50 in the assay with MM cells stood at 30 µM.
In the case of `Cc1ccc(Sc2ncccc2NS(=O)(=O)c2ccc(Cl)cc2)cc1` [Example 3, 4-chloro-N-(2-(p-tolylthio)pyridin-3-yl)benzenesulfonamide], the IC50 in the assay on MM cells worked out at 30 µM.
Still for that read-out and setting: to `CC(Sc1nc(=O)cc(N)n1CCc1ccccc1)C(=O)Nc1cccc(Cl)c1` (stereo not shown) [Example 4, 2-(6-amino-4-oxo-1-phenethyl-1,4-dihydropyrimidin-2-ylthio)-N-(3-chlorophenyl)propanamide] belongs 20 µM; to `Nc1cc(=O)nc(SCC(=O)Nc2ccc(Cl)cc2)n1CCc1ccccc1` [Example 5, 2-(6-amino-4-oxo-1-phenethyl-1,4-dihydropyrimidin-2-ylthio)-N-(4-chlorophenyl)acetamide], 20 µM.
Take `CC(C)C[C@H](NC(=O)[C@H](Cc1ccccc1)NC(=O)c1cnccn1)B(O)O` [bortezomib]: the cell death entry in the assay on OPM-2 cells is given as “dose-dependently triggered cell death”.
Turning to `N[C@@H](Cc1ccc(N(CCCl)CCCl)cc1)C(=O)O` [melphalan], the apoptotic cells with OPM-2 cells (OPM-2, 50 μM melphalan alone, 24 h) came out at 32%. For the same molecule, the cell death result in the assay with OPM-2 cells was “dose-dependently triggered cell death”.
